Assay results published in the NIST ThermoML archive (doi:10.1016/j.fluid.2005.05.023).
Numbers after ± are expanded uncertainties.

Assay: xn = mol fraction of the nth substance listed
Conditions: Liquid, Vibrating tube method

Cc1ccccc1 [toluene] + CCO
mass density [kg/m3]
Conditions	100 kPa	5000 kPa	10000 kPa	15000 kPa	20000 kPa	25000 kPa	30000 kPa	35000 kPa	40000 kPa	45000 kPa
313.15 K, x2 = 0.625	–	–	–	–	–	–	–	–	–	846 ± 0.4
313.15 K, x2 = 0.75	–	–	–	–	–	–	–	–	–	835.8 ± 0.4
313.15 K, x2 = 0.875	–	–	–	–	–	–	–	–	–	823.2 ± 0.5
323.15 K, x2 = 0	838.6 ± 0.2	843 ± 0.3	847.2 ± 0.3	851.3 ± 0.3	855.2 ± 0.3	858.9 ± 0.3	862.5 ± 0.3	866 ± 0.3	869.4 ± 0.3	872.6 ± 0.4
323.15 K, x2 = 0.125	832.1 ± 0.3	836.5 ± 0.3	840.8 ± 0.3	845 ± 0.3	848.9 ± 0.3	852.7 ± 0.3	856.3 ± 0.3	859.9 ± 0.4	863.3 ± 0.4	866.5 ± 0.4
323.15 K, x2 = 0.25	825.8 ± 0.3	830.3 ± 0.3	834.7 ± 0.3	838.9 ± 0.3	842.9 ± 0.3	846.7 ± 0.3	850.4 ± 0.3	853.9 ± 0.4	857.3 ± 0.4	860.6 ± 0.4
323.15 K, x2 = 0.375	819.1 ± 0.3	823.6 ± 0.3	828 ± 0.3	832.3 ± 0.3	836.3 ± 0.3	840.2 ± 0.3	843.8 ± 0.4	847.4 ± 0.4	850.9 ± 0.4	854.2 ± 0.4
323.15 K, x2 = 0.5	811.3 ± 0.3	815.9 ± 0.3	820.4 ± 0.3	824.7 ± 0.3	828.8 ± 0.3	832.6 ± 0.3	836.4 ± 0.4	840 ± 0.4	843.4 ± 0.4	846.7 ± 0.4
323.15 K, x2 = 0.625	802.5 ± 0.3	807.1 ± 0.3	811.6 ± 0.3	815.9 ± 0.3	820 ± 0.3	824 ± 0.4	827.7 ± 0.4	831.3 ± 0.4	834.8 ± 0.4	838.1 ± 0.4
323.15 K, x2 = 0.75	792.1 ± 0.3	796.8 ± 0.3	801.3 ± 0.3	805.7 ± 0.3	809.8 ± 0.4	813.8 ± 0.4	817.5 ± 0.4	821.2 ± 0.4	824.7 ± 0.4	828.1 ± 0.5
323.15 K, x2 = 0.875	779.3 ± 0.3	784.1 ± 0.3	788.7 ± 0.4	793.1 ± 0.4	797.3 ± 0.4	801.3 ± 0.4	805.1 ± 0.4	808.8 ± 0.5	812.3 ± 0.5	815.7 ± 0.5
333.15 K, x2 = 0	828.8 ± 0.2	833.5 ± 0.3	838 ± 0.3	842.3 ± 0.3	846.4 ± 0.3	850.4 ± 0.3	854.2 ± 0.3	857.9 ± 0.3	861.4 ± 0.4	864.8 ± 0.4
333.15 K, x2 = 0.125	822 ± 0.3	826.7 ± 0.3	831.4 ± 0.3	835.8 ± 0.3	839.9 ± 0.3	843.9 ± 0.3	847.8 ± 0.3	851.5 ± 0.4	855.1 ± 0.4	858.5 ± 0.4
333.15 K, x2 = 0.25	815.6 ± 0.3	820.4 ± 0.3	825.1 ± 0.3	829.5 ± 0.3	833.7 ± 0.3	837.8 ± 0.3	841.7 ± 0.4	845.4 ± 0.4	849 ± 0.4	852.5 ± 0.4
333.15 K, x2 = 0.375	808.8 ± 0.3	813.6 ± 0.3	818.4 ± 0.3	822.9 ± 0.3	827.1 ± 0.3	831.2 ± 0.3	835.1 ± 0.4	838.9 ± 0.4	842.5 ± 0.4	846 ± 0.4
333.15 K, x2 = 0.5	801.2 ± 0.3	806.1 ± 0.3	810.8 ± 0.3	815.4 ± 0.3	819.7 ± 0.3	823.8 ± 0.4	827.7 ± 0.4	831.5 ± 0.4	835.1 ± 0.4	838.6 ± 0.4
333.15 K, x2 = 0.625	792.3 ± 0.3	797.2 ± 0.3	802.1 ± 0.3	806.7 ± 0.3	811 ± 0.4	815.2 ± 0.4	819.1 ± 0.4	822.9 ± 0.4	826.6 ± 0.4	830.1 ± 0.4
333.15 K, x2 = 0.75	782 ± 0.3	787 ± 0.3	791.9 ± 0.3	796.5 ± 0.4	800.9 ± 0.4	805.1 ± 0.4	809.1 ± 0.4	812.9 ± 0.4	816.6 ± 0.5	820.1 ± 0.5
333.15 K, x2 = 0.875	769.5 ± 0.3	774.6 ± 0.3	779.5 ± 0.4	784.2 ± 0.4	788.7 ± 0.4	792.9 ± 0.4	796.9 ± 0.4	800.7 ± 0.5	804.4 ± 0.5	808 ± 0.5
343.15 K, x2 = 0	819.2 ± 0.2	824.1 ± 0.3	829 ± 0.3	833.5 ± 0.3	837.9 ± 0.3	842.1 ± 0.3	846 ± 0.3	849.9 ± 0.4	853.5 ± 0.4	857 ± 0.4
343.15 K, x2 = 0.125	811.9 ± 0.3	817 ± 0.3	821.9 ± 0.3	826.6 ± 0.3	831.1 ± 0.3	835.3 ± 0.3	839.3 ± 0.4	843.2 ± 0.4	846.9 ± 0.4	850.5 ± 0.4
343.15 K, x2 = 0.25	805.3 ± 0.3	810.5 ± 0.3	815.5 ± 0.3	820.3 ± 0.3	824.8 ± 0.3	829 ± 0.3	833.1 ± 0.4	837 ± 0.4	840.8 ± 0.4	844.4 ± 0.4
343.15 K, x2 = 0.375	798.5 ± 0.3	803.7 ± 0.3	808.8 ± 0.3	813.6 ± 0.3	818.1 ± 0.3	822.4 ± 0.4	826.5 ± 0.4	830.5 ± 0.4	834.2 ± 0.4	837.9 ± 0.4
343.15 K, x2 = 0.5	790.7 ± 0.3	796 ± 0.3	801.1 ± 0.3	806 ± 0.3	810.6 ± 0.3	814.9 ± 0.4	819 ± 0.4	823 ± 0.4	826.8 ± 0.4	830.5 ± 0.4
343.15 K, x2 = 0.625	781.9 ± 0.3	787.3 ± 0.3	792.5 ± 0.3	797.4 ± 0.3	802 ± 0.4	806.3 ± 0.4	810.5 ± 0.4	814.5 ± 0.4	818.3 ± 0.4	822 ± 0.5
343.15 K, x2 = 0.75	771.8 ± 0.3	777.2 ± 0.3	782.5 ± 0.3	787.4 ± 0.4	792 ± 0.4	796.4 ± 0.4	800.6 ± 0.4	804.6 ± 0.4	808.5 ± 0.5	812.2 ± 0.5
343.15 K, x2 = 0.875	759.6 ± 0.3	765 ± 0.3	770.3 ± 0.4	775.3 ± 0.4	780 ± 0.4	784.4 ± 0.4	788.6 ± 0.4	792.7 ± 0.5	796.5 ± 0.5	800.2 ± 0.5
353.15 K, x2 = 0	809.4 ± 0.2	814.7 ± 0.3	819.9 ± 0.3	824.7 ± 0.3	829.3 ± 0.3	833.7 ± 0.3	837.9 ± 0.3	841.9 ± 0.4	845.7 ± 0.4	849.4 ± 0.4
353.15 K, x2 = 0.125	801.7 ± 0.3	807.2 ± 0.3	812.5 ± 0.3	817.4 ± 0.3	822.2 ± 0.3	826.7 ± 0.3	830.9 ± 0.4	835 ± 0.4	838.9 ± 0.4	842.7 ± 0.4
353.15 K, x2 = 0.25	–	800.4 ± 0.3	805.8 ± 0.3	810.9 ± 0.3	815.6 ± 0.3	820.2 ± 0.4	824.5 ± 0.4	828.6 ± 0.4	832.6 ± 0.4	836.4 ± 0.4
353.15 K, x2 = 0.375	–	793.4 ± 0.3	798.9 ± 0.3	804 ± 0.3	808.8 ± 0.3	813.4 ± 0.4	817.8 ± 0.4	821.9 ± 0.4	825.9 ± 0.4	829.7 ± 0.4
353.15 K, x2 = 0.5	–	785.7 ± 0.3	791.3 ± 0.3	796.4 ± 0.3	801.3 ± 0.3	805.9 ± 0.4	810.3 ± 0.4	814.5 ± 0.4	818.5 ± 0.4	822.3 ± 0.5
353.15 K, x2 = 0.625	–	777 ± 0.3	782.6 ± 0.3	787.9 ± 0.3	792.8 ± 0.4	797.4 ± 0.4	801.8 ± 0.4	806 ± 0.4	810 ± 0.4	813.9 ± 0.5
353.15 K, x2 = 0.75	–	767.1 ± 0.3	772.7 ± 0.3	778 ± 0.4	782.9 ± 0.4	787.6 ± 0.4	792 ± 0.4	796.3 ± 0.4	800.3 ± 0.5	804.2 ± 0.5
353.15 K, x2 = 0.875	–	755.1 ± 0.3	760.8 ± 0.4	766.1 ± 0.4	771.1 ± 0.4	775.8 ± 0.4	780.3 ± 0.5	784.5 ± 0.5	788.6 ± 0.5	792.4 ± 0.5
